In patent US9655884B2, “Antiparasitic use of isoxazoline compounds” (Intervet Inc., priority 2013, dated 2017):

Tested on: adult fleas (C. felis)
Assay: In vitro membrane feeding exposure to assess flea reproduction
Design: species or system Ctenocephalides felis
Details: for Effect on hatching of larvae: flea groups able to lay eggs, all concentrations
Procedure: A membrane feeding method [Wade S E, Georgi J R. Survival and reproduction of artificially fed cat fleas, Ctenocephalides felis Bouché (Siphonaptera: Pulicidae). J Med Entomol 1988, 25: 186-190.] was modified to assess the impact of fluralaner exposure on flea reproduction. Defibrinated sheep blood was prepared in a series of dilutions with fluralaner to obtain concentrations between 50.0 and 0.09 ng/mL. These test solutions were prepared twice and each preparation was tested in duplicate resulting in a total of 4 replicates per concentration, along with a fluralaner negative solvent control (a solvent concentration equivalent to that of the highest concentrated fluralaner test solution) and an untreated control.
Unfed adult fleas (C. felis; 20 males and 20 females) were placed into a plastic unit that was then closed with a gauze lid. A grid inside the plastic unit divided the unit into 2 chambers, an upper chamber for flea feeding and a lower chamber for egg collection. Test or control blood preparations (2 ml) were placed in an artificial membrane closed glass tube that was then placed on the plastic unit as the food source. Feeding units were incubated (38° C. and 60% RH) for 10 days. Test and negative control blood preparations were freshly prepared and exchanged (on days 1, 3, 5, and 8) to permit continuous flea feeding. Fleas were transferred into fresh plastic units on Days 5 and 8 to facilitate egg collection. Collected eggs were mixed with flea nourishment medium and incubated (28° C. and 80% RH) in darkness for 22 (±3) days to enable flea development. Parameters recorded were flea survival, oviposition control, egg hatchability, pupa control, flea-emergence control and reproduction inhibition.

[1] = eggs of parent fleas fed 0.09 ng/mL in blood, exposure day 9
[2] = eggs of parent fleas fed 0.09 ng/mL in blood, exposure day 10
[3] = eggs of parent fleas fed 0.19 ng/mL in blood, exposure day 3
[4] = eggs of parent fleas fed 0.19 ng/mL in blood, exposure day 4
[5] = eggs of parent fleas fed 0.19 ng/mL in blood, exposure day 5
[6] = eggs of parent fleas fed 0.19 ng/mL in blood, exposure day 8
[7] = eggs of parent fleas fed 0.19 ng/mL in blood, exposure day 9
[8] = eggs of parent fleas fed 0.19 ng/mL in blood, exposure day 10
[9] = eggs of parent fleas fed 0.39 ng/mL in blood, exposure day 3
[10] = eggs of parent fleas fed 0.39 ng/mL in blood, exposure day 4
[11] = eggs of parent fleas fed 0.39 ng/mL in blood, exposure day 5
[12] = eggs of parent fleas fed 0.39 ng/mL in blood, exposure day 8
[13] = eggs of parent fleas fed 0.39 ng/mL in blood, exposure day 9
[14] = eggs of parent fleas fed 0.39 ng/mL in blood, exposure day 10
[15] = eggs of parent fleas fed 0.78 ng/mL in blood, exposure day 3
[16] = eggs of parent fleas fed 0.78 ng/mL in blood, exposure day 4
[17] = eggs of parent fleas fed 0.78 ng/mL in blood, exposure day 5
[18] = eggs of parent fleas fed 0.78 ng/mL in blood, exposure day 8
[19] = eggs of parent fleas fed 0.78 ng/mL in blood, exposure day 9
[20] = eggs of parent fleas fed 0.78 ng/mL in blood, exposure day 10
[21] = eggs of parent fleas fed 1.56 ng/mL in blood, exposure day 3
[22] = eggs of parent fleas fed 1.56 ng/mL in blood, exposure day 4
[23] = eggs of parent fleas fed 1.56 ng/mL in blood, exposure day 5
[24] = eggs of parent fleas fed 1.56 ng/mL in blood, exposure day 8
[25] = eggs of parent fleas fed 1.56 ng/mL in blood, exposure day 9
[26] = eggs of parent fleas fed 1.56 ng/mL in blood, exposure day 10
[27] = eggs of parent fleas fed 3.13 ng/mL in blood, exposure day 3
[28] = eggs of parent fleas fed 3.13 ng/mL in blood, exposure day 4
[29] = eggs of parent fleas fed 3.13 ng/mL in blood, exposure day 5
[30] = eggs of parent fleas fed 3.13 ng/mL in blood, exposure day 8
[31] = eggs of parent fleas fed 3.13 ng/mL in blood, exposure day 9
[32] = eggs of parent fleas fed 3.13 ng/mL in blood, exposure day 10
[33] = eggs of parent fleas fed 6.25 ng/mL in blood, exposure day 3
[34] = eggs of parent fleas fed 6.25 ng/mL in blood, exposure day 4
[35] = eggs of parent fleas fed 6.25 ng/mL in blood, exposure day 5
[36] = eggs of parent fleas fed 6.25 ng/mL in blood, exposure day 8
[37] = eggs of parent fleas fed 6.25 ng/mL in blood, exposure day 9
[38] = eggs of parent fleas fed 6.25 ng/mL in blood, exposure day 10
[39] = eggs of parent fleas fed 12.5 ng/mL in blood, exposure day 3
[40] = eggs of parent fleas fed 12.5 ng/mL in blood, exposure day 8
[41] = eggs of parent fleas fed 12.5 ng/mL in blood, exposure day 9

Cc1cc(C2=NOC(c3cc(Cl)cc(Cl)c3)(C(F)(F)F)C2)ccc1C(=O)NCC(=O)NCC(F)(F)F (centres unmarked) [fluralaner, 4-[5-(3,5-Dichlorophenyl)-5-trifluoromethyl-4,5-dihydroisoxazol-3-yl]-2-methyl-N-[(2,2,2-trifluoro-ethylcarbamoyl)-methyl]-benzamide]
Pupal Development Control (eggs of parent fleas fed 0.09 ng/mL in blood, exposure day 8): 0% | Larval Emergence [1]: yes | Pupal Development Control [1]: 5.9% | Larval Emergence [2]: yes | Pupal Development Control [2]: 2.9% | Pupal Development Control (eggs of parent fleas fed 0.19 ng/mL in blood, arithmetic mean of exposure days): 3.1% | Larval Emergence [3]: yes | Pupal Development Control [3]: 8.8% | Larval Emergence [4]: yes | Pupal Development Control [4]: 0.2% | Larval Emergence [5]: yes | Pupal Development Control [5]: 6.8% | Larval Emergence [6]: yes | Pupal Development Control [6]: 0% | Larval Emergence [7]: yes | Pupal Development Control [7]: 2.7% | Larval Emergence [8]: yes | Pupal Development Control [8]: 0% | Pupal Development Control (eggs of parent fleas fed 0.39 ng/mL in blood, arithmetic mean of exposure days): 3.6% | Larval Emergence [9]: yes | Pupal Development Control [9]: 9.8% | Larval Emergence [10]: yes | Pupal Development Control [10]: 0% | Larval Emergence [11]: yes | Pupal Development Control [11]: 1.5% | Larval Emergence [12]: yes | Pupal Development Control [12]: 3.3% | Larval Emergence [13]: yes | Pupal Development Control [13]: 6.3% | Larval Emergence [14]: yes | Pupal Development Control [14]: 0.8% | Pupal Development Control (eggs of parent fleas fed 0.78 ng/mL in blood, arithmetic mean of exposure days): 12.1% | Larval Emergence [15]: yes | Pupal Development Control [15]: 7.5% | Larval Emergence [16]: yes | Pupal Development Control [16]: 11.4% | Larval Emergence [17]: yes | Pupal Development Control [17]: 16.7% | Larval Emergence [18]: yes | Pupal Development Control [18]: 10.8% | Larval Emergence [19]: yes | Pupal Development Control [19]: 11.9% | Larval Emergence [20]: yes | Pupal Development Control [20]: 14.5% | Pupal Development Control (eggs of parent fleas fed 1.56 ng/mL in blood, arithmetic mean of exposure days): 35.1% | Larval Emergence [21]: yes | Pupal Development Control [21]: 35.3% | Larval Emergence [22]: yes | Pupal Development Control [22]: 36.3% | Larval Emergence [23]: yes | Pupal Development Control [23]: 34.6% | Larval Emergence [24]: yes | Pupal Development Control [24]: 35.5% | Larval Emergence [25]: yes | Pupal Development Control [25]: 41.6% | Larval Emergence [26]: yes | Pupal Development Control [26]: 27.2% | Pupal Development Control (eggs of parent fleas fed 3.13 ng/mL in blood, arithmetic mean of exposure days): 64.5% | Larval Emergence [27]: yes | Pupal Development Control [27]: 66.3% | Larval Emergence [28]: yes | Pupal Development Control [28]: 68.9% | Larval Emergence [29]: yes | Pupal Development Control [29]: 61.7% | Larval Emergence [30]: yes | Pupal Development Control [30]: 70.3% | Larval Emergence [31]: yes | Pupal Development Control [31]: 62.1% | Larval Emergence [32]: yes | Pupal Development Control [32]: 57.4% | Pupal Development Control (eggs of parent fleas fed 6.25 ng/mL in blood, arithmetic mean of exposure days): 88.7% | Larval Emergence [33]: yes | Pupal Development Control [33]: 90.2% | Larval Emergence [34]: yes | Pupal Development Control [34]: 92.4% | Larval Emergence [35]: yes | Pupal Development Control [35]: 87.3% | Larval Emergence [36]: yes | Pupal Development Control [36]: 86.4% | Larval Emergence [37]: yes | Pupal Development Control [37]: 89.9% | Larval Emergence [38]: yes | Pupal Development Control [38]: 86.0% | Pupal Development Control (eggs of parent fleas fed 12.5 ng/mL in blood, arithmetic mean of exposure days): 85.1% | Larval Emergence [39]: no | Pupal Development Control [39]: 100% | Larval Emergence [40]: yes | Pupal Development Control [40]: 55.2% | Larval Emergence [41]: yes | Pupal Development Control [41]: 100% | Effect on hatching of larvae: does not affect the hatching of larvae | Effect on hatching of larvae (listed as Fluralaner): did not affect the hatching of larvae | Adult Flea Emergence Control (parent fleas fed 0.09 ng/mL in blood, arithmetic mean of exposure days): 0.3% | Adult Flea Emergence Control (parent fleas fed 0.09 ng/mL in blood, exposure day 3): 1.1% | Adult Flea Emergence Control (parent fleas fed 0.09 ng/mL in blood, exposure day 4): 0.5% | Adult Flea Emergence Control (parent fleas fed 0.09 ng/mL in blood, exposure day 5): 0% | Adult Flea Emergence Control (parent fleas fed 0.09 ng/mL in blood, exposure day 8): 0% | Adult Flea Emergence Control (parent fleas fed 0.09 ng/mL in blood, exposure day 9): 0% | Adult Flea Emergence Control (parent fleas fed 0.09 ng/mL in blood, exposure day 10): 0% | Adult Flea Emergence Control (parent fleas fed 0.19 ng/mL in blood, arithmetic mean of exposure days): 2.2% | Adult Flea Emergence Control (parent fleas fed 0.19 ng/mL in blood, exposure day 3): 4.6% | Adult Flea Emergence Control (parent fleas fed 0.19 ng/mL in blood, exposure day 4): 0% | Adult Flea Emergence Control (parent fleas fed 0.19 ng/mL in blood, exposure day 5): 1.3% | Adult Flea Emergence Control (parent fleas fed 0.19 ng/mL in blood, exposure day 8): 0.8% | Adult Flea Emergence Control (parent fleas fed 0.19 ng/mL in blood, exposure day 9): 6.7% | Adult Flea Emergence Control (parent fleas fed 0.19 ng/mL in blood, exposure day 10): 0% | Adult Flea Emergence Control (parent fleas fed 0.39 ng/mL in blood, arithmetic mean of exposure days): 1.1% | Adult Flea Emergence Control (parent fleas fed 0.39 ng/mL in blood, exposure day 3): 0% | Adult Flea Emergence Control (parent fleas fed 0.39 ng/mL in blood, exposure day 4): 0% | Adult Flea Emergence Control (parent fleas fed 0.39 ng/mL in blood, exposure day 5): 0% | Adult Flea Emergence Control (parent fleas fed 0.39 ng/mL in blood, exposure day 8): 1.6% | Adult Flea Emergence Control (parent fleas fed 0.39 ng/mL in blood, exposure day 9): 5.2% | Adult Flea Emergence Control (parent fleas fed 0.39 ng/mL in blood, exposure day 10): 0% | Adult Flea Emergence Control (parent fleas fed 0.78 ng/mL in blood, arithmetic mean of exposure days): 1.5% | Adult Flea Emergence Control (parent fleas fed 0.78 ng/mL in blood, exposure day 3): 3.8% | Adult Flea Emergence Control (parent fleas fed 0.78 ng/mL in blood, exposure day 4): 0% | Adult Flea Emergence Control (parent fleas fed 0.78 ng/mL in blood, exposure day 5): 0% | Adult Flea Emergence Control (parent fleas fed 0.78 ng/mL in blood, exposure day 8): 3.1% | Adult Flea Emergence Control (parent fleas fed 0.78 ng/mL in blood, exposure day 9): 1.8% | Adult Flea Emergence Control (parent fleas fed 0.78 ng/mL in blood, exposure day 10): 0% | Adult Flea Emergence Control (parent fleas fed 1.56 ng/mL in blood, arithmetic mean of exposure days): 1.7% | Adult Flea Emergence Control (parent fleas fed 1.56 ng/mL in blood, exposure day 3): 0% | Adult Flea Emergence Control (parent fleas fed 1.56 ng/mL in blood, exposure day 4): 0% | Adult Flea Emergence Control (parent fleas fed 1.56 ng/mL in blood, exposure day 5): 0% | Adult Flea Emergence Control (parent fleas fed 1.56 ng/mL in blood, exposure day 8): 10.2% | Adult Flea Emergence Control (parent fleas fed 1.56 ng/mL in blood, exposure day 9): 0% | Adult Flea Emergence Control (parent fleas fed 1.56 ng/mL in blood, exposure day 10): 0% | Adult Flea Emergence Control (parent fleas fed 3.13 ng/mL in blood, arithmetic mean of exposure days): 5.9% | Adult Flea Emergence Control (parent fleas fed 3.13 ng/mL in blood, exposure day 3): 4.4% | Adult Flea Emergence Control (parent fleas fed 3.13 ng/mL in blood, exposure day 4): 11.9% | Adult Flea Emergence Control (parent fleas fed 3.13 ng/mL in blood, exposure day 5): 3.2% | Adult Flea Emergence Control (parent fleas fed 3.13 ng/mL in blood, exposure day 8): 8.6% | Adult Flea Emergence Control (parent fleas fed 3.13 ng/mL in blood, exposure day 9): 7.5% | Adult Flea Emergence Control (parent fleas fed 3.13 ng/mL in blood, exposure day 10): 0% | Adult Flea Emergence Control (parent fleas fed 6.25 ng/mL in blood, arithmetic mean of exposure days): 11.5% | Adult Flea Emergence Control (parent fleas fed 6.25 ng/mL in blood, exposure day 3): 29.2% | Adult Flea Emergence Control (parent fleas fed 6.25 ng/mL in blood, exposure day 4): 0% | Adult Flea Emergence Control (parent fleas fed 6.25 ng/mL in blood, exposure day 5): 0% | Adult Flea Emergence Control (parent fleas fed 6.25 ng/mL in blood, exposure day 8): 9.2% | Adult Flea Emergence Control (parent fleas fed 6.25 ng/mL in blood, exposure day 9): 30.8% | Adult Flea Emergence Control (parent fleas fed 6.25 ng/mL in blood, exposure day 10): 0% | Adult Flea Emergence Control (parent fleas fed 12.5 ng/mL in blood, arithmetic mean of exposure days): 100% | Adult Flea Emergence Control (parent fleas fed 12.5 ng/mL in blood, exposure day 8): 100%
